This is an account of results in patent US20250163038A1, “CBL-B MODULATORS AND USES THEREOF” (Nimbus Clio, Inc., priority 2021, published 2025).

The structures appear in SMILES notation. Like-named read-outs stand apart in the source and are kept apart here.

For orientation: IC50 means the concentration that gives 50% inhibition. As a reminder, the EC50 is the concentration giving half of the maximal effect.

Assay [1] addresses Recombinant human Cbl-b (aa 36-427) (Homo sapiens, UniProt Q13191). In words: Cbl-b Biochemical Assay (TR-FRET). To be noted: read-out: TR-FRET hCbl-b IC50. Background: TR-FRET usually uses a lanthanide donor and a delayed reading to cut background.
The test system of assay [2] is Jurkat (clone E6-1) cells with NFAT luciferase reporter. In words: Jurkat reporter assay (NFAT Luciferase). The conditions noted are these: Homo sapiens. It is filed as cell-based.
The target of assay [3] is T1, Recombinant human c-Cbl (aa 47-435) (Homo sapiens, UniProt P22681).
T1 sequence (P22681 47-435): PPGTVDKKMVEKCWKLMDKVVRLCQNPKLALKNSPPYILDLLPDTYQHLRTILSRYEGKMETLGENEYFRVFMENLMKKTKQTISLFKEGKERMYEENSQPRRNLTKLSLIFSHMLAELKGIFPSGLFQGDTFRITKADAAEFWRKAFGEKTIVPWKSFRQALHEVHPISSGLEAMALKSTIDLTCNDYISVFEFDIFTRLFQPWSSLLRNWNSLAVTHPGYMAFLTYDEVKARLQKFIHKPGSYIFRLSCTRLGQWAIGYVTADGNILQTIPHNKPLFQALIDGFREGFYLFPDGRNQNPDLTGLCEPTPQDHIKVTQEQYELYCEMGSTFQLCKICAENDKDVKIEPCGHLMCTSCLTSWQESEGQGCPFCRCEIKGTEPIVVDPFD
In words: c-Cbl Biochemical Assay (TR-FRET). To be noted: hc-Cbl Biochemical Assay (TR-FRET); read-out: TR-FRET hcCbl IC50.

The mark [4] stands for this setting: Jurkat NFAT luciferase reporter cells, anti-CD3 stimulation, 6 hr, read-out: Jurkat NFAT EC50.
The mark [5] stands for this setting: Jurkat, 6 h, read-out: Jurkat NFAT EC50 (μM).

Recombinant human Cbl-b (aa 36-427), sequence (Q13191 36-427): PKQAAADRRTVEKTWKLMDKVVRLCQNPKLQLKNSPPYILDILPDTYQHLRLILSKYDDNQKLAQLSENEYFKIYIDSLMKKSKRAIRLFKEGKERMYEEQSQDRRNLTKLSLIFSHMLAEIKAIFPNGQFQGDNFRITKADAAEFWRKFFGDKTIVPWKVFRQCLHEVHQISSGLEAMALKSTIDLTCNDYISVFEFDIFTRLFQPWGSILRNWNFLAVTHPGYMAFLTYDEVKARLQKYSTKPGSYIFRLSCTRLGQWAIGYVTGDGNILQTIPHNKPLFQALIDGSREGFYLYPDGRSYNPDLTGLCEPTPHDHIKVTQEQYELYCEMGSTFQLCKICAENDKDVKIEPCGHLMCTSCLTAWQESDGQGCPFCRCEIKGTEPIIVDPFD

`CN(C)CC(=O)NCc1cc(C(F)(F)F)c2oc(-c3cccc(-c4ccc(F)cc4-c4nncn4C)c3)nc2c1` [HC-2, 2-(Dimethylamino)-N-((2-(4′-fluoro-2′-(4-methyl-4H-1,2,4-triazol-3-yl)-[1,1′-biphenyl]-3-yl)-7-(trifluoromethyl)benzo[d]oxazol-5-yl)methyl)acetamide]: the IC50 was < 200 nM in assay [1] and 200 to 1000 nM in assay [3]. Moreover, the EC50 in assay [2] (setting [4]) is 1 to 10 µM.

For the compound `CC(=O)NCCNCc1cc(C(F)(F)F)c2oc(-c3cccc(-c4ccc(F)cc4-c4nncn4C)c3)nc2c1` [HD-2, N-(2-(((2-(4′-Fluoro-2′-(4-methyl-4H-1,2,4-triazol-3-yl)-[1,1′-biphenyl]-3-yl)-7-(trifluoromethyl)benzo[d]oxazol-5-yl)methyl)amino)ethyl)acetamide], the IC50 in assay [1] and in assay [3] was < 200 nM each time. In assay [2] (setting [4]), the EC50 is 0.2 to 1 µM.

As to `Cn1cnnc1-c1cc(F)ccc1-c1cccc(-c2nc3cc(CNCC(=O)N4CCC4)cc(C(F)(F)F)c3o2)c1` [HE-4, 1-(Azetidin-1-yl)-2-(((2-(4′-fluoro-2′-(4-methyl-4H-1,2,4-triazol-3-yl)-[1,1′-biphenyl]-3-yl)-7-(trifluoromethyl)benzo[d]oxazol-5-yl)methyl)amino)ethan-1-one], the IC50 in assay [1] and in assay [3] was < 200 nM each time. The EC50 in assay [2] (setting [4]) was in the range of 1 to 10 µM.

Turning to `COc1cc(CN[C@@H]2C[C@H](O)C2(C)C)cc2nc(-c3cccc(-c4ccc(F)cc4-c4nncn4C)c3)oc12` [HF-1, (1S,3R)-3-(((2-(4′-Fluoro-2′-(4-methyl-4H-1,2,4-triazol-3-yl)-[1,1′-biphenyl]-3-yl)-7-methoxybenzo[d]oxazol-5-yl)methyl)amino)-2,2-dimethylcyclobutan-1-ol], the IC50 in assay [1] was < 200 nM; in assay [3], 200 to 1000 nM. Moreover, the 50% effective concentration (EC50) in assay [2] (setting [4]) was in the range of 1 to 10 µM.

`Cn1cnnc1-c1cc(F)ccc1-c1cccc(-c2nc3cc(CN[C@@H]4CCC[C@@H]4O)cc(Cl)c3o2)c1` [HG-7, (1S,2R)-2-(((7-Chloro-2-(4′-fluoro-2′-(4-methyl-4H-1,2,4-triazol-3-yl)-[1,1′-biphenyl]-3-yl)benzo[d]oxazol-5-yl)methyl)amino)cyclopentan-1-ol]: the IC50 in assay [1] and in assay [3] was < 200 nM throughout. The EC50 in assay [2] (setting [5]) is < 0.2 µM.

`Cn1cnnc1-c1cc(F)ccc1-c1cccc(-c2nc3cc(CN[C@@H]4CCC[C@@H]4O)cc(C#N)c3o2)c1` [HH-3, 2-(4′-Fluoro-2′-(4-methyl-4H-1,2,4-triazol-3-yl)-[1,1′-biphenyl]-3-yl)-5-((((1R,2S)-2-hydroxycyclopentyl)amino)methyl)benzo[d]oxazole-7-carbonitrile]: the IC50 in assay [1] and in assay [3] was < 200 nM each time. In addition, in assay [2] (setting [5]), the concentration giving a half-maximal response (EC50) was < 0.2 µM.

As to `Cn1cnnc1-c1cc(F)ccc1-c1cccc(-c2nc3cc(CN[C@H]4CCC[C@H]4O)cc(C(F)(F)F)c3o2)c1` [HI-2, (1R,2S)-2-(((2-(4′-Fluoro-2′-(4-methyl-4H-1,2,4-triazol-3-yl)-[1,1′-biphenyl]-3-yl)-7-(trifluoromethyl)benzo[d]oxazol-5-yl)methyl)amino)cyclopentan-1-ol], the IC50 in assay [1] and in assay [3] was < 200 nM throughout. In addition, the EC50 in assay [2] (setting [4]) is < 0.2 µM.

For `Cn1cnnc1-c1cc(F)ccc1-c1cccc(-c2nc3cc(CN[C@H]4CCC[C@@H]4O)cc(C(F)(F)F)c3o2)c1` [HJ-1, (1S,2S)-2-(((2-(4′-Fluoro-2′-(4-methyl-4H-1,2,4-triazol-3-yl)-[1,1′-biphenyl]-3-yl)-7-(trifluoromethyl)benzo[d]oxazol-5-yl)methyl)amino)cyclopentan-1-ol], the IC50 in assay [1] and in assay [3] was < 200 nM in each case. The EC50 in assay [2] (setting [4]) is < 0.2 µM.

As for `Cn1cnnc1-c1cc(F)ccc1-c1cccc(-c2nc3cc(CNCC4(C)CCC4)cc(C(F)(F)F)c3o2)c1` [HK-2, 1-(2-(4′-Fluoro-2′-(4-methyl-4H-1,2,4-triazol-3-yl)-[1,1′-biphenyl]-3-yl)-7-(trifluoromethyl)benzo[d]oxazol-5-yl)-N-((1-methylcyclobutyl)methyl)methanamine], the IC50 in assay [1] and in assay [3] was < 200 nM each time. In addition, in assay [2] (setting [4]), the concentration for a half-maximal effect (EC50) was < 0.2 µM.

For the compound `Cn1cnnc1-c1cc(F)ccc1-c1cccc(-c2nc3cc(CNC[C@@]4(C)CCO4)cc(C(F)(F)F)c3o2)c1` [HL-2, (R)-1-(2-(4′-Fluoro-2′-(4-methyl-4H-1,2,4-triazol-3-yl)-[1,1′-biphenyl]-3-yl)-7-(trifluoromethyl)benzo[d]oxazol-5-yl)-N-((2-methyloxetan-2-yl)methyl)methanamine], the 50% inhibitory concentration (IC50) in assay [1] and in assay [3] was < 200 nM in each case. Also, the EC50 in assay [2] (setting [4]) lay in the range of 0.2 to 1 µM.

Take `Cn1cnnc1-c1cc(F)ccc1-c1cccc(-c2nc3cc(NCCC4CCCC4)cc(C(F)(F)F)c3o2)c1` [HM-3, N-(2-Cyclopentylethyl)-2-(4′-fluoro-2′-(4-methyl-4H-1,2,4-triazol-3-yl)-[1,1′-biphenyl]-3-yl)-7-(trifluoromethyl)benzo[d]oxazol-5-amine]: the IC50 in assay [1] and in assay [3] was 1000 to 10000 nM in each case. For the same compound, the EC50 in assay [2] (setting [4]) was 1 to 10 µM.

For `Cn1cnnc1-c1cc(F)ccc1-c1cccc(-c2nc3cc(CNCCC4CCCC4)cc(C(F)(F)F)c3o2)c1` [HN-1, 2-Cyclopentyl-N-((2-(4′-fluoro-2′-(4-methyl-4H-1,2,4-triazol-3-yl)-[1,1′-biphenyl]-3-yl)-7-(trifluoromethyl)benzo[d]oxazol-5-yl)methyl)ethan-1-amine], the half-inhibitory concentration (IC50) in assay [1] and in assay [3] was < 200 nM throughout. Moreover, the EC50 in assay [2] (setting [4]) is 0.2 to 1 µM.

Take `Cn1cnnc1-c1cc(F)ccc1-c1cccc(-c2nc3cc(CNC4CC4)cc(C(F)(F)F)c3o2)c1` [HO-2, N-((2-(4′-Fluoro-2′-(4-methyl-4H-1,2,4-triazol-3-yl)-[1,1′-biphenyl]-3-yl)-7-(trifluoromethyl)benzo[d]oxazol-5-yl)methyl)cyclopropanamine]: the IC50 in assay [1] and in assay [3] was < 200 nM in each case. Further, the EC50 in assay [2] (setting [4]) is < 0.2 µM.

As to `CCC1(CNCc2cc(C(F)(F)F)c3oc(-c4cccc(-c5ccc(F)cc5-c5nncn5C)c4)nc3c2)CCC1` [HP-2, 1-(1-Ethylcyclobutyl)-N-((2-(4′-fluoro-2′-(4-methyl-4H-1,2,4-triazol-3-yl)-[1,1′-biphenyl]-3-yl)-7-(trifluoromethyl)benzo[d]oxazol-5-yl)methyl)methanamine], the IC50 in assay [1] and in assay [3] was < 200 nM each time. Also, the 50% effective concentration (EC50) in assay [2] (setting [4]) was < 0.2 µM.

Take `CC(C)CC1(CNCc2cc(C(F)(F)F)c3oc(-c4cccc(-c5ccc(F)cc5-c5nncn5C)c4)nc3c2)CCC1` [HQ-2, 1-(2-(4′-Fluoro-2′-(4-methyl-4H-1,2,4-triazol-3-yl)-[1,1′-biphenyl]-3-yl)-7-(trifluoromethyl)benzo[d]oxazol-5-yl)-N-((1-isobutylcyclobutyl)methyl)methanamine]: the IC50 in assay [1] and in assay [3] was < 200 nM each time. Besides, in assay [2] (setting [4]), the EC50 was 0.2 to 1 µM.

As for `CN(Cc1cc(Cl)c2oc(-c3cccc(-c4ccc(F)cc4-c4nncn4C)c3)nc2c1)[C@@H]1CCC[C@@H]1O` [HS-3, (1S,2R)-2-(((7-Chloro-2-(4′-fluoro-2′-(4-methyl-4H-1,2,4-triazol-3-yl)-[1,1′-biphenyl]-3-yl)benzo[d]oxazol-5-yl)methyl)(methyl)amino)cyclopentan-1-ol], the IC50 in assay [1] and in assay [3] was < 200 nM throughout. In addition, the EC50 in assay [2] (setting [4]) was < 0.2 µM.

Consider `COc1cc(CN(C)[C@@H]2CCC[C@@H]2O)cc2nc(-c3cccc(-c4ccc(F)cc4-c4nncn4C)c3)oc12` [HT-3, (1S,2R)-2-(((2-(4′-Fluoro-2′-(4-methyl-4H-1,2,4-triazol-3-yl)-[1,1′-biphenyl]-3-yl)-7-methoxybenzo[d]oxazol-5-yl)methyl)(methyl)amino)cyclopentan-1-ol], for which the IC50 in assay [1] and in assay [3] was < 200 nM throughout. In assay [2] (setting [4]), the concentration for a half-maximal effect (EC50) lay in the range of 0.2 to 1 µM.

For `Cn1cnnc1-c1cc(F)ccc1-c1cccc(-c2nc3cc(N[C@@H]4CCC[C@@H]4O)cc(C(F)(F)F)c3o2)c1` [HV-3, (1S,2R)-2-((2-(4′-Fluoro-2′-(4-methyl-4H-1,2,4-triazol-3-yl)-[1,1′-biphenyl]-3-yl)-7-(trifluoromethyl)benzo[d]oxazol-5-yl)amino)cyclopentan-1-ol], the IC50 in assay [1] was 200 to 1000 nM; in assay [3] it was 1000 to 10000 nM. Also, the EC50 in assay [2] (setting [4]) is 10 to 50 µM.

Turning to `Cn1cnnc1-c1cc(F)ccc1-c1cccc(-c2nc3cc(CNCC4(F)CCC4)cc(C(F)(F)F)c3o2)c1` [HW-2, 1-(2-(4′-Fluoro-2′-(4-methyl-4H-1,2,4-triazol-3-yl)-[1,1′-biphenyl]-3-yl)-7-(trifluoromethyl)benzo[d]oxazol-5-yl)-N-((1-fluorocyclobutyl)methyl)methanamine], the IC50 in assay [1] and in assay [3] was < 200 nM in each case. Further, the concentration for a half-maximal effect (EC50) in assay [2] (setting [4]) was in the range of 0.2 to 1 µM.

Turning to `Cn1cnnc1-c1cc(F)ccc1-c1cccc(-c2nc3cc(CN[C@@H]4CCC[C@@H]4O)c(F)c(F)c3o2)c1` [HX-8, (1S,2R)-2-(((6,7-Difluoro-2-(4′-fluoro-2′-(4-methyl-4H-1,2,4-triazol-3-yl)-[1,1′-biphenyl]-3-yl)benzo[d]oxazol-5-yl)methyl)amino)cyclopentan-1-ol], the IC50 in assay [1] and in assay [3] was < 200 nM each time. For the same compound, the EC50 in assay [2] (setting [4]) is < 0.2 µM.
